In patent publication US20030061759A1, “Method for expelling harmful insects by volatilization of a chemical” (FUMAKILLA LIMITED, priority 2000, published 2003):
Like-named read-outs stand apart in the source and are kept apart here. Blank lines part the entries; values can stand above or below the compound they belong to.

Legend:
[1] = Comparative vapor pressure tests by gas chromatography; type: physicochemical
Description: 2. Comparative Vapor Pressure Tests
Next, by using gas chromatography, the various chemicals including sample chemicals A, B and C screened out by the foregoing comparative debugging efficaciousness tests were compared with d,d-T80-prallethrin (Etoc) as regards to their vapor pressures.
The gas chromatography test included as its temperature conditions an initial temperature of 60° C., and a temperature rise of 5° C. per minute up to a maximum temperature of 250° C., which was held for a period of 5 minutes, whereupon the process ended.
The filler used was made up of methyl silicon polymer, which is non-polar.
It should also be noted that as an internal standard substance use was made of sebacic acid-n-butyl and which was added to confirm that there was no deviation in retention time from one test to another.
Retention times for the various chemicals are listed in Table 2 in the order of shorter to longer.

[2] = test system: female adult stegomyia mosquitoes (Aedes albopictus); assay: Comparative debugging efficaciousness tests: bloodsucking prevention on rats, liquid type electric mosquito repellent utensil; type: in vivo; conditions: for efficacy of preventing mosquitoes from bloodsucking rats compared with transfluthrin: comparison in words; for Potency Ratio (Etoc 100), of IC50 Value / Potency Ratio (Etoc 100), of IC90 Value: relative to d,d-T80-prallethrin (Etoc) = 100; for IC50 Value (amount of volatilization at a 50% rate of bloodsucking prevention) / IC90 Value (amount of volatilization at a 90% rate of bloodsucking prevention): 13.2 m^2 room, 32° C., 30 min pre-fumigation, 2 hours after release, rats
Description: First, debugging efficaciousness tests were performed. For the criterion of judgment to compare degrees of efficaciousness, the effect of bloodsucking by mosquitoes of rats was adopted. Based on this, the following efficaciousness tests were carried out.
Comparative Debugging Efficaciousness Tests
Sample chemicals that were used were as follows: d,d-T80-prallethrin, transfluthrin, d1,d-T80-allethrin, d-T80-furamethrin, terallethrin and empenthrin; and pyrethroid technical products (sample chemicals) A, B, C, D, E, F, G and H.
Sample insects that were used were as follows: female adult stegomyia mosquitoes (Aedes albopictus) of Fumakilla (spelled phonetically) series 6th to 9th after emergence.
Sample chemical volatilizing form: A liquid type electric mosquito repellent utensil, a liquid agent (referred to below as “sample liquid”), obtained by diluting each of the sample chemicals with a solvent in a varying concentration, was allowed to volatilize.
Method used for tests: A test was conducted in two 8 straw mat (13.2 m^2) rooms, one as a treatment zone and the other as a non-treatment zone, both in a no-wind state and at a constant room temperature of 32° C.
In the treatment zone, three cages each with a rat confined therein were placed equidistantly spaced apart (about 20 cm) in the center of the test room. The mosquito repellent utensil placed on the floor surface of the center of the test room was preliminarily electrically energized for operation, and to thermally volatilize each of the sample liquids and fumigate the room therewith for a period of 30 minutes, and then about 100 (one hundred) of sample mosquitoes were released into the test room. After two hours following the release of the mosquitoes, all these sample mosquitoes were knocked-down by using a mosquito repellent mat, and the number of the mosquitoes which had bloodsucking was counted to find the proportion of bloodsucking.
In the non-treatment zone, also, after the 2 hours of bloodsucking, the proportion of bloodsucking was found.
A rate of bloodsucking prevention was derived from the proportions of bloodsucking in the treatment and non-treatment rooms as expressed by the following equation:
Rate of bloodsucking prevention =[(Total bloodsucking proportion in the non-treatment zone−Total bloodsucking proportion in the treatment zone)÷Total bloodsucking proportion in the non-treatment zone]×100
Also, on the basis of these amounts of volatilization and rates of bloodsucking prevention, an amount of volatilization at a 50% rate of bloodsucking prevention (IC50 value) and an amount of volatilization at a 90% rate of bloodsucking prevention (IC90 value) are found and shown in Table 1 below.

[3] = test system: female adult common house mosquitoes (Culex pipiens pallens); assay: Example 1: spontaneous volatilization efficaciousness test in 33 m^3 room (knockdown, KT50); type: in vivo
Text: Using sample chemicals A, B and C screened out by the preliminary tests, the efficaciousness of each of them when allowed to volatilize spontaneously was compared with that of transfluthrin when allowed to volatilize spontaneously.
Sample Preparations (Chemicals and Their Carriers According to the Present Invention):
(§1) A non-woven polypropylene fabric (made by Idemitsu Petroleum Chemicals Co., Ltd., product name RW2100, density 100 grams/m^2) of 50 cm×40 cm was coated with a hexane solution of 100 milliliter containing 1% (W/V) sample chemicals A, B, C and left to dry for 24 hours (effective amount of chemical: 1000 milligrams).
Comparative Preparation (Chemical and its Carrier):
as §1, with “of transfluthrin” for “sample chemicals A, B, C”
Testing Method: Efficaciousness Tests in an 8 Straw Mat room with a volume of 33 m^3
In the center of the test room with a volume of 33 m^3 (3.65 m×3.65 m×2.5 m high), each chemical carrier as prepared as above was placed as hung on a hook suspended in the center of the room to let the corresponding chemical volatilize spontaneously for a period of 3 hours. Thereafter, a triangular net casing (20 cm×20 cm×16.4 cm high) of 16 mesh nylon net containing 10 (ten) female adult common house mosquitoes (Culex pipiens pallens) was placed as hung in an area at each of the four corners (spaced from the wall surfaces at a distance of 90 cm) at a height of 150 cm from the room floor and was exposed to the chemical atmosphere.
A test was also conducted likewise for the comparative carrier.
After the tests ended, the samples chemicals were let to volatilize spontaneously in the room having a constant temperature of 30° C. The same test was repeated at given intervals and efficaciousness was then examined each time.

[4] = 60° C. initial, 5° C. per minute up to 250° C., non-polar methyl silicon polymer filler

SMILES: C#CC(OC(=O)C1C(C=C(C)C)C1(C)C)/C(C)=C/CC (stereo not drawn) [Empenthrin]
Retention Time (gas chromatography, as comparison of vapor pressure) [1, 4]: 20.1 min | efficacy of preventing mosquitoes from bloodsucking rats compared with transfluthrin [2]: lower effects of preventing mosquitoes from bloodsucking rats than transfluthrin | Potency Ratio (Etoc 100), of IC50 Value [2]: 0.7 | Potency Ratio (Etoc 100), of IC90 Value [2]: 1.2

SMILES: CC(C)=CC1C(C(=O)OCc2cccc(Oc3ccccc3)c2)C1(C)C (stereo not drawn) [Phenothorin, reference compound]
Retention Time (gas chromatography, as comparison of vapor pressure) [1]: 33.7 min

SMILES: CC=CC1C(C(=O)OCc2c(F)c(F)c(COC)c(F)c2F)C1(C)C (stereo not drawn) [Sample Chemical A, 2,3,5,6-tetrafluoro-4-methoxymethylbenzyl 3-(1-propenyl)-2,2-dimethylcyclopropanecarboxylate]
Retention Time (gas chromatography, as comparison of vapor pressure) [1, 4]: 25.1 min | vapor pressure compared with transfluthrin and d,d-T80-prallethrin ([1]; from GC retention times): lower than transfluthrin, but higher than d,d-T80-prallethrin | potency and retention of potency compared with transfluthrin ([3]; comparison in words): higher in potency and also longer in retention time than transfluthrin | KT50 ([3]; elapsed time 0 hr): 6.53 min | KT50 ([3]; elapsed time 168 hr): 4.52 min | KT50 ([3]; elapsed time 336 hr): 5.38 min | KT50 ([3]; elapsed time 504 hr): 6.28 min | KT50 ([3]; elapsed time 672 hr): 7.25 min | KT50 ([3]; elapsed time 864 hr): 9.60 min | KT50 ([3]; elapsed time 1056 hr): 8.50 min | KT50 ([3]; elapsed time 1200 hr): 8.80 min | KT50 ([3]; elapsed time 1344 hr): 9.70 min | KT50 ([3]; elapsed time 1536 hr): 8.97 min | KT50 ([3]; elapsed time 1680 hr): 11.60 min | KT50 ([3]; elapsed time 1848 hr): 12.50 min | KT50 ([3]; elapsed time 2016 hr): 11.50 min | KT50 ([3]; elapsed time 2208 hr): 13.60 min | KT50 ([3]; elapsed time 2352 hr): 16.80 min | KT50 ([3]; elapsed time 2520 hr): 17.20 min | KT50 ([3]; elapsed time 2688 hr): 18.60 min | KT50 ([3]; elapsed time 2856 hr): 17.70 min | KT50 ([3]; elapsed time 3024 hr): 24.60 min | KT50 ([3]; elapsed time 3192 hr): 27.80 min | KT50 ([3]; elapsed time 3360 hr): 31.60 min | efficacy of preventing mosquitoes from bloodsucking rats compared with transfluthrin [2]: more efficacious than transfluthrin | Potency Ratio (Etoc 100), of IC50 Value [2]: 197.1 | Potency Ratio (Etoc 100), of IC90 Value [2]: 496.8

SMILES: COc1c(F)c(F)c(COC(=O)C2C(C=C(Cl)Cl)C2(C)C)c(F)c1F (stereo not drawn) [Sample Chemical D, 2,3,5,6-tetrafluoro-4-methoxybenzyl 3-(2,2-dichlorovinyl)-2,2-dimethylcyclopropanecarboxylate]
Potency Ratio (Etoc 100), of IC50 Value [2]: 17.5 | Potency Ratio (Etoc 100), of IC90 Value [2]: 21.3

SMILES: COCc1c(F)c(F)c(COC(=O)C2C(C=C(C)C)C2(C)C)c(F)c1F (stereo not drawn) [Sample Chemical E, 2,3,5,6-tetrafluoro-4-methoxymethylbenzyl 3-(2-methyl-1-propenyl)-2,2-dimethylcyclopropanecarboxylate]
Potency Ratio (Etoc 100), of IC50 Value [2]: 13.7 | Potency Ratio (Etoc 100), of IC90 Value [2]: 22.4

SMILES: CC(C)=CC1C(C(=O)OCc2c(F)c(F)c(C)c(F)c2F)C1(C)C (stereo not drawn) [Sample Chemical F, 2,3,5,6-tetrafluoro-4-methylbenzyl 3-(2-methyl-1-propenyl)-2,2-dimethylcyclopropanecarboxylate]
Potency Ratio (Etoc 100), of IC50 Value [2]: 6.6 | Potency Ratio (Etoc 100), of IC90 Value [2]: 5.4

SMILES: CC=CC1C(C(=O)OCc2c(F)c(F)c(C)c(F)c2F)C1(C)C (stereo not drawn) [Sample Chemical G, 2,3,5,6-tetrafluoro-4-methylbenzyl 3-(1-propenyl)-2,2-dimethylcyclopropanecarboxylate]
Potency Ratio (Etoc 100), of IC50 Value [2]: 2.8 | Potency Ratio (Etoc 100), of IC90 Value [2]: 4.3

SMILES: C#CC(OC(=O)C1C(C=C(F)Cl)C1(C)C)C(C)=CCC (stereo not drawn) [Sample Chemical H, 1-ethynyl-2-methyl-2-pentenyl 3-(2-chloro-2-fluorovinyl)-2,2-dimethylcyclopropanecarboxylate]
Potency Ratio (Etoc 100), of IC50 Value [2]: 2.0 | Potency Ratio (Etoc 100), of IC90 Value [2]: 3.1

Retention Time (gas chromatography, as comparison of vapor pressure) [1]: 23.3 min
SMILES: C=CCC1=C(C)C(OC(=O)C2C(C)(C)C2(C)C)CC1=O (stereo not drawn) [Terallethrin]
IC50 Value (amount of volatilization at a 50% rate of bloodsucking prevention) [2]: 0.3650 mg/h | IC90 Value (amount of volatilization at a 90% rate of bloodsucking prevention) [2]: 1.028 mg/h | efficacy of preventing mosquitoes from bloodsucking rats compared with transfluthrin [2]: lower effects of preventing mosquitoes from bloodsucking rats than transfluthrin | Potency Ratio (Etoc 100), of IC50 Value [2]: 2.2 | Potency Ratio (Etoc 100), of IC90 Value [2]: 3.8

SMILES: C=CCC1=C(C)C(OC(=O)C2C(C=C(C)C)C2(C)C)CC1=O (stereo not drawn) [d1,d-T80-allethrin]
Retention Time (gas chromatography, as comparison of vapor pressure) [1]: 26.6 min | efficacy of preventing mosquitoes from bloodsucking rats compared with transfluthrin [2]: lower effects of preventing mosquitoes from bloodsucking rats than transfluthrin | Potency Ratio (Etoc 100), of IC50 Value [2]: 12.9 | Potency Ratio (Etoc 100), of IC90 Value [2]: 9.5

SMILES: C#CCC1=C(C)C(OC(=O)C2C(C=C(C)C)C2(C)C)CC1=O (stereo not drawn) [d,d-T80-prallethrin]
Retention Time (gas chromatography, as comparison of vapor pressure) [1, 4]: 27.1 min | IC50 Value (amount of volatilization at a 50% rate of bloodsucking prevention) [2]: 0.0081 mg/h | IC90 Value (amount of volatilization at a 90% rate of bloodsucking prevention) [2]: 0.039 mg/h | efficacy of preventing mosquitoes from bloodsucking rats compared with transfluthrin [2]: more efficacious than transfluthrin | Potency Ratio (Etoc 100), of IC50 Value [2]: 100.0 | Potency Ratio (Etoc 100), of IC90 Value [2]: 100.0

SMILES: C#CCc1ccc(COC(=O)C2C(C=C(C)C)C2(C)C)o1 (stereo not drawn) [d-T80-furamethrin]
IC50 Value (amount of volatilization at a 50% rate of bloodsucking prevention) [2]: 0.1170 mg/h | IC90 Value (amount of volatilization at a 90% rate of bloodsucking prevention) [2]: 0.270 mg/h | efficacy of preventing mosquitoes from bloodsucking rats compared with transfluthrin [2]: lower effects of preventing mosquitoes from bloodsucking rats than transfluthrin | Potency Ratio (Etoc 100), of IC50 Value [2]: 6.9 | Potency Ratio (Etoc 100), of IC90 Value [2]: 14.4
